{"source": "a melting point compilation (Tetko et al.; mined from patent text by program, amines drawn as free bases though some values may be those of a salt)"}
{"units": {"melting point": "°C"}}
{"compound": "CC1(C(O)(Cc2ccc(F)cc2)Cn2cncn2)CC1(F)F", "note": "(centres undefined)", "melting point": 114}
{"compound": "COc1ccc2nccc(NC(=O)C3CCN(CCc4cnc5ccccc5n4)CC3)c2n1", "melting point": 170}
{"compound": "O=C(CCN1C(=O)CSC1=S)Nc1ccccc1O", "melting point": "168 to 170"}
{"compound": "COc1cc(OC)nc(C(=O)O)n1", "melting point": "155 to 157"}
{"compound": "C[C@@]1(C=O)S[C@@H]2CC(=O)N2[C@H]1C(=O)OC(c1ccccc1)c1ccccc1", "melting point": "112 to 113"}
{"compound": "CCC(OC(C)=O)c1ccc(Cl)c2nc3n(c12)CCCN3c1cnc(N(C)C)cc1C", "note": "(centres undefined)", "melting point": "159 to 160"}
{"compound": "CC(C)C[C@H](NC(=O)OCc1ccccc1)C(=O)N[C@@H](Cc1ccccc1)C(=O)CSCc1ccc(Cl)s1", "melting point": "105 to 107"}
{"compound": "CCCCNc1cc(-c2ccccc2)nc2onc(C)c12", "melting point": "126 to 127"}
{"compound": "Cc1nnc(-c2ccc3occ(-c4ccc(C(=O)N5CCOCC5)c(F)c4)c3c2)o1", "melting point": "167 to 168"}
{"compound": "CCN(CC)C(=O)c1cc(-c2ccc(C)cc2)nc2ccccc12", "melting point": 52}
{"compound": "CCc1nn2c(N3CCN(C)CC3)ccnc2c1S(=O)(=O)c1ccccc1", "melting point": "206 to 207"}
{"compound": "CCC1c2ccc(F)n2-c2ccc(Br)cc2N1S(=O)(=O)c1ccc(O)cc1", "note": "(centres undefined)", "melting point": "160 to 162"}
{"compound": "CC(C)(C=O)C(O)(CCc1ccc(F)cc1)Cn1cncn1", "note": "(centres undefined)", "melting point": 98}
{"compound": "COc1ccc2c(c1)N(C(C)=O)c1cccc(SC)c1S2", "melting point": "106 to 108"}
{"compound": "CC(C)Cn1c(=O)n(C)c(=O)c2c(-c3cccc(-c4nnn[nH]4)c3)n(Cc3cccc4ccccc34)nc21", "melting point": "251 to 254"}
{"compound": "c1cc(CN2CCCCC2)cc(OCCCCCNc2nc3ccccc3s2)c1", "melting point": "140 to 145"}
{"compound": "CCCN(c1cccc(-c2ccnc3c([N+](=O)[O-])cnn23)c1)S(C)(=O)=O", "melting point": "165 to 167"}
{"compound": "CC(C)c1ccc(-c2nc(=O)n(Cc3ccccc3)c3ccc(O)cc23)cc1", "melting point": "> 270"}
{"compound": "O=C(O)c1ccc(-c2cnc3c(c2)N(Cc2c(F)ccc(F)c2Cl)C(=O)CN3)cc1", "melting point": "> 300"}
{"compound": "NC1CN(C(=O)Nc2ccc(C(F)(F)F)cc2)N=C1c1ccc(Cl)cc1", "note": "(centres undefined)", "melting point": "144 to 146"}
{"compound": "O=[N+]([O-])c1cccc(-c2ccccc2O)c1", "melting point": "99.5 to 100"}
{"compound": "CN1CCN(C2=Nc3ccccc3N=C(c3ccccc3)C2)CC1", "melting point": "155 to 157"}
{"compound": "CS(=O)c1ccc(-c2coc3ccc(-c4nnc(O)o4)cc23)cc1", "note": "(centres undefined)", "melting point": "234 to 237"}
{"compound": "NS(=O)(=O)c1ccc(-n2nc(C(F)F)cc2-c2ccc3c(c2)OCO3)cc1", "melting point": "214 to 218"}
{"compound": "CC1(C)C(=O)ON(Cc2ccccc2Br)C1=O", "melting point": "44.5 to 45.5"}
{"compound": "CN(C)S(=O)(=O)c1ccc(Oc2ccc(S(C)(=O)=O)cc2)cc1", "melting point": "128 to 130"}
{"compound": "CNS(=O)(=O)c1cscc1CO", "melting point": "118 to 119"}
{"compound": "CCOC(=O)c1ccc(N(CCOc2ccc(C(C)=O)c3ccccc23)C(=O)C(F)(F)F)cc1", "melting point": "160 to 161"}
{"compound": "Cc1nc(Br)sc1C(=O)NCc1ccccc1", "melting point": "92 to 94"}
{"compound": "CCOC(=O)c1oc(C(C)(C)C)cc1N", "melting point": "44 to 45"}
{"compound": "COc1ccc(OCC2(Cc3c(C)nc(OC)c(C(C)C)c3C(=O)c3cc(C)cc(C#N)c3)CC2)cc1", "melting point": "179 to 180"}
{"compound": "CCN(CC)C(=O)c1ccc2ccccc2c1-c1ccc(C(F)(F)F)cc1", "melting point": "111 to 112"}
{"compound": "C[C@H](Nc1ncnc2[nH]cnc12)c1oc2ccc(F)cc2c(=O)c1-c1cccc(F)c1", "melting point": "194 to 197"}
{"compound": "CNC(=S)N1CC(Oc2cccc(C(F)(F)F)c2)C1", "melting point": "79 to 86"}
{"compound": "N#Cc1ncn2c(C(F)(F)F)cc(-c3cccc(Cl)c3)nc12", "melting point": 221}
{"compound": "CC1(C)Cc2cccc(C(=O)O)c2S1", "melting point": "179 to 182"}
{"compound": "NCCCP(=O)(O)C(F)F", "melting point": 261}
{"compound": "O=C1NC(=O)C(Cc2ccc(OCCc3c[nH]c4ccccc34)cc2)S1", "note": "(centres undefined)", "melting point": "42.6 to 44.5"}
{"compound": "CCCCSc1cc(C(=O)OCC#N)cc(S(N)(=O)=O)c1Cc1ccccc1", "melting point": "112 to 114"}
{"compound": "Cn1c(C(=O)O)cc(=O)c2cc(O)c(=O)c(Br)cc21", "melting point": "> 250"}
{"compound": "O=S1(=O)c2ccccc2NC(=S)c2ccc(C(F)(F)F)cc21", "melting point": "275 to 278"}
{"compound": "C1=NC2=C(CCC1)CSC2", "melting point": "55 to 57"}
{"compound": "N#Cc1cc(N)ccc1N1CCC(c2ccccc2)CC1", "melting point": "158 to 162"}
{"compound": "CCCn1cc(Cc2ccc(C(=O)O)cc2OC)c2cc(CC3CCN(CC)C3=O)ccc21", "note": "(centres undefined)", "melting point": "94 to 99"}
{"compound": "Cc1cccc(C)c1CNc1cc(C(=O)N(C)C)cc2c1nc(CO)n2C", "melting point": "171 to 172"}
{"compound": "COC(=O)c1cc(I)cn1CCF", "melting point": "49 to 50.5"}
{"compound": "COC(=O)c1nc(-c2ccc(Cl)c(OC)c2F)nc(O)c1Br", "melting point": "192 to 195"}
{"compound": "COC(C)=CC(=O)Nc1cccc(N)c1", "melting point": 132}
{"compound": "CN1CC=C(c2c[nH]c3ccc(NC(=O)c4ccccc4)cc23)CC1", "melting point": "> 250"}
{"compound": "Cc1cccc(C)c1-n1cnc(NCc2ccccn2)nc1=O", "melting point": "165 to 166"}
{"compound": "COC(=O)c1cc(Cl)cnc1NCc1ccc(OC)cc1", "melting point": "75 to 77"}
{"compound": "O=C1CCC(c2ccccc2)(c2ccccc2)C2CN(C(Cc3ccccc3)=NCc3ccccn3)CC12", "note": "(centres undefined)", "melting point": 180}
{"compound": "COc1ccc(C2Sc3c(ccc4ccccc34)N(CCCN(C)C)C(=O)C2O)cc1", "note": "(centres undefined)", "melting point": "123 to 124"}
{"compound": "CCCC(=O)NCCC1CCc2ccc3c(c21)OCO3", "note": "(centres undefined)", "melting point": "71 to 73"}
{"compound": "COC(=O)c1cc(S(C)(=O)=O)c(F)cc1Br", "melting point": 126}
{"compound": "O=C1CCn2cc(C(=O)NCc3ccc(Cl)cc3)c(=O)c3cc(CN4CCOCC4)cc(c32)N1", "melting point": "235 to 240"}
{"compound": "Cn1c(S(=O)(=O)c2ccc(=O)[nH]n2)cc2ccccc21", "melting point": "233 to 235"}
{"compound": "NS(=O)(=O)c1ccc(-n2nc(C(F)F)cc2-c2nc3cccc(F)c3s2)cc1", "melting point": "246 to 248"}
{"compound": "O=c1c(-c2ccccc2)c(SCc2ccccc2)oc2cc(O)ccc12", "melting point": "215 to 217"}
{"compound": "CS(=O)(=O)N1CCN([C@@H](CNC(=O)c2ccc(OCc3ccccc3)cc2)C(=O)NO)CC1", "melting point": 150}
{"compound": "CCC1(CCCCN2CCc3sccc3C2)C(=O)Nc2ccc(C)cc21", "note": "(centres undefined)", "melting point": "138 to 140"}
{"compound": "CCOCCn1cc(C2CCN(CCOc3ccc(C(=O)O)cc3)CC2)c2ccccc21", "melting point": 85}
{"compound": "COC(=O)C(C)(C)OCc1cc2cc(C(F)(F)F)ccc2n1S(=O)(=O)c1cccc2nc(C)sc12", "melting point": "118 to 120"}
{"compound": "Cc1[nH]c2cc(C(=O)c3ccccc3)ccc2c1/C=C/C(=O)c1ccncc1", "melting point": "267 to 270"}
{"compound": "CC(=O)Nc1ccc(CN2C(=O)[C@H]3CCC[C@H]3N(C(=O)CN3C(=O)c4ccccc4C3=O)c3ccccc32)cc1", "note": "(relative stereo)", "melting point": "303 to 306"}
{"compound": "O=C(O)c1cnc(N2CCCC2)c(OCC2CCCC2)n1", "melting point": "204 to 206"}
{"compound": "CCOP(=O)(/C=C/c1cn(-c2ccccc2)nc1OCc1ccc(OCc2nc(-c3ccc(CC(=O)O)cc3)oc2C)c(OC)c1)OCC", "melting point": "119 to 120"}
{"compound": "Cc1cc(N)ccc1NCCNC(N)=O", "melting point": 143}
{"compound": "O=C(C=P(c1ccccc1)(c1ccccc1)c1ccccc1)CCCOc1ccccc1", "melting point": "83 to 89"}
{"compound": "CCOC1=NS(=O)(=O)c2cccc([N+](=O)[O-])c21", "melting point": "190 to 191"}
{"compound": "O=C(CCSCCOCCSCCC(=O)Nc1ccc(Nc2ccccc2)cc1)Nc1ccc(Nc2ccccc2)cc1", "melting point": "154 to 156"}
{"compound": "CCCc1nc2c(N)nc3ccccc3c2n1CCS(C)(=O)=O", "melting point": "212 to 214"}
{"compound": "CCCc1c2oc(C(N)=O)cc(=O)c2cc2c(=O)cc(C(=O)OCC)oc12", "melting point": "229 to 231"}
{"compound": "Cc1c(CC(=O)O)c2cc(OCc3csc(-c4ccc(Cl)cc4)n3)ccc2n1Cc1ccc(Cl)cc1", "melting point": "145 to 146"}
{"compound": "COc1c(F)c(F)cc2c(O)c(C(=O)NCc3ccc(Cl)cc3)cnc12", "melting point": "248 to 251"}
{"compound": "O=C(O)c1cn(-c2nccs2)c2c(F)c(F)c(F)cc2c1=O", "melting point": "198 to 200"}
{"compound": "CC(C)(C)OC(=O)N1CCn2c(C#N)c(-c3cccc(F)c3)c(C(N)=O)c2C1", "melting point": "208 to 210"}
{"compound": "Cc1oc(-c2ccc(C(F)(F)F)cc2)nc1CCOc1c(Cl)cc(CN(O)C(N)=O)cc1Cl", "melting point": "137 to 139"}
{"compound": "CCCCc1ncc(CC(NC(=O)CCc2ccccc2)C(=O)O)n1Cc1ccccc1Cl", "note": "(centres undefined)", "melting point": "194 to 196"}
{"compound": "CCCCCCCNC(=O)Nc1ccc(OC)cc1C(=O)NCC1CCN(C(c2ccccc2)c2ccccc2)CC1", "melting point": "189 to 191"}
{"compound": "CC(=O)N[C@@H](CSC(=O)c1ccccc1)C(=O)NCCSC(=O)C(C)(C)C", "melting point": "133 to 134"}
{"compound": "COc1ccc(-c2cc(=O)n(Cc3ccccc3)nc2-c2ccc(OC)c(F)c2)cc1F", "melting point": "114 to 115"}
{"compound": "CCOC(=O)c1cnoc1-c1cc(Cl)cc(Cl)c1", "melting point": "50 to 51"}
{"compound": "O=c1[nH]c(C2CCCN(Cc3ccccc3)C2)cc2ccccc12", "note": "(centres undefined)", "melting point": "176 to 178"}
{"compound": "Cc1nc(O)c(-c2ccccc2)s1", "melting point": "208 to 211"}
{"compound": "CCOC(=O)C1N=c2sccc2=CN1N", "note": "(centres undefined)", "melting point": "138 to 140"}
{"compound": "CCCNc1cc(C(=O)O)cc(S(N)(=O)=O)c1Oc1ccccc1", "melting point": "223 to 224"}
{"compound": "CCN(CC)CCC(=O)OCC1CC(c2ccc(-c3ccc(N4CC(Cn5ccnn5)OC4=O)cc3F)cn2)=NO1", "note": "(centres undefined)", "melting point": 167}
{"compound": "CCC1(c2ccc3cc(OC)ccc3c2)OC(C(=O)OC)C(C(=O)OC)O1", "note": "(centres undefined)", "melting point": "72 to 73"}
{"compound": "COc1ccc2cc(N)cc3c2c1C(=O)N(O)C3=O", "melting point": "> 250"}
{"compound": "COc1cc(C2CCN(C(=O)C(C)(C)N)CC2)ccc1Nc1ncc2ccc(-c3ccccc3OC)n2n1", "melting point": "81 to 89"}
{"compound": "Nc1cc(=O)n(Cc2ccc(F)cc2)[nH]1", "melting point": 148}
{"compound": "COC(=O)c1nc2c(CBr)cccc2n1COCC[Si](C)(C)C", "melting point": "85 to 86"}
{"compound": "O=c1ccn([C@@H]2C=CCC[C@@H]2O)c(=O)[nH]1", "note": "(racemic)", "melting point": 203}
{"compound": "CCC(=O)C(=CN(C)C)Oc1cc(Cl)cc(Cl)c1", "melting point": "96 to 97"}
{"compound": "Cc1cc(SCc2cccc(C(F)(F)F)c2)c(C)cc1N", "melting point": "58 to 60"}
{"compound": "COC(=O)c1cc2c3ccccc3n(C(C)=O)c2s1", "melting point": "179 to 181"}
{"compound": "CN(C)C1C(O)CC2C3CCc4cc(O)ccc4C3CCC21C", "note": "(centres undefined)", "melting point": "240 to 242"}
{"compound": "CCOC(=O)c1cc2c(OCc3ccccc3)cccc2n1C", "melting point": "89 to 90.5"}
